According to publication PMC9250534, “Synthesis and direct assay of large macrocycle diversities by combinatorial late-stage modification at picomole scale” (Nature Communications, 2022):
Numbered stars: 1 amine (or outer) side, 2 acyl side, 3 side chain; on linkers, the order of the positions; unused ones are H or OH. Bridge positions count the residues as written; N and C are the ends. Square brackets hold non-standard residues; d marks the D form. Peptide text beside a SMILES is read from it. * marks the point of attachment. 1,2,3Thiadiazole5CO(4-Me) = Cc1nnsc1C(=O)*; Cysteamide = C(CS[*:3])N[*:1]; 4Amb = NCc1ccc(C(=O)O)cc1; Isovaleryl = CC(C)CC(=O)*; Orn = NCCC[C@H](N)C(=O)O; 2Furoyl = O=C(c1ccco1)*; Bz = O=C(c1ccccc1)*; βAla = NCCC(=O)O; Mpa = O=C(O)CCS

Target: T1, thrombin (Homo sapiens, UniProt P00734)
T1 construct: consists of two polypeptide chains of 36 (light chain) and 259 amino acid
Assay: Thrombin inhibition screen of crude macrocycle reactions (residual thrombin activity, fluorogenic substrate Z-Gly-Gly-Arg-AMC)
Type: biochemical
Conditions: 10 µM macrocycle concentration; crude reactions, Library 1a-l; scaffold AA1-AA2-AA3 combined with 1-16 or '-'
Summary of the method: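 Residual activity was measured as the AMC release rate after adding 50 μM Z-Gly-Gly-Arg-AMC. This followed a 10-min room-temperature preincubation of 2 nM thrombin with 10 μM single macrocycles in pH 7.4 Tris buffer (0.6% DMSO). Percent inhibition was taken against the mean slope of DMSO controls.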

First: NC(=O)CC[C@@H]1NC(=O)c2ccc(cc2)CNC(=O)[C@H](CCCNC(=O)c2c[nH]c(=O)cn2)NC(=O)CCSSCCNC1=O [D2-B3-Q/9]
Second: NC(=O)CC[C@@H]1NC(=O)c2ccc(cc2)CNC(=O)[C@H](CCCNC(=O)c2c[nH]c(=O)[nH]c2=O)NC(=O)CCSSCCNC1=O [D2-B3-Q/11]
The “percent residual thrombin activity” value of the first is lower: 109.29% for the first, 114.755% for the second.

First: CC(C)CC(=O)NCCC[C@@H]1NC(=O)CCSSCCNC(=O)[C@H](C(C)C)NC(=O)[C@H]2CCCN(C2)C1=O [D2-B4-V/8]
Second: CC(C)[C@@H]1NC(=O)[C@H]2CCCN(C2)C(=O)[C@H](CCCNC(=O)COc2ccccc2)NC(=O)CCSSCCNC1=O [D2-B4-V/13]
The “percent residual thrombin activity” value of the first is lower: 110.86% for the first, 112.633% for the second.

First: COc1ccc(C(=O)NCCC[C@@H]2NC(=O)CCSSCCNC(=O)[C@H](C(C)C)NC(=O)[C@H]3CCCN(C3)C2=O)cn1 [D2-B4-V/10]
Second: CC(C)[C@@H]1NC(=O)[C@H]2CCCN(C2)C(=O)[C@H](CCCNC(=O)c2ccc(Cl)s2)NC(=O)CCSSCCNC1=O [D2-B4-V/14]
The “percent residual thrombin activity” value of the first is higher: 108.833% for the first, 102.581% for the second.

First: O=C1CCSSCCNC(=O)[C@@H](Cc2ccccc2)NC(=O)[C@H]2CCCN(C2)C(=O)[C@H](CCCNC(=O)c2c[nH]c(=O)cn2)N1 [D2-B4-f/9]
Second: COc1ccc(C(=O)NCCC[C@@H]2NC(=O)CCSSCCNC(=O)[C@@H](Cc3ccccc3)NC(=O)[C@H]3CCCN(C3)C2=O)cn1 [D2-B4-f/10]
The “percent residual thrombin activity” value of the first is higher: 109.579% for the first, 107.675% for the second.

Compared with O=C1CCSSCCNC(=O)[C@@H](Cc2ccccc2)NC(=O)[C@H]2CCCN(C2)C(=O)[C@H](CCCNC(=O)c2ccc(Cl)s2)N1 [D2-B4-f/14], CC(C)CC(=O)NCCCC[C@@H]1NC(=O)[C@H](Cc2ccccc2)NC(=O)CCSSCCNC(=O)[C@H]2CCCN(C2)C1=O [F-D1-B4/8] is higher in “percent residual thrombin activity” value: 82.899% for the first, 108.059% for the second.

Going from Cc1cc(C(=O)NCCC[C@@H]2NC(=O)CCSSCCNC(=O)[C@H](Cc3cnc[nH]3)NC(=O)c3cccc(c3)CNC2=O)no1 [D2-B5-H/3] to O=C1CCSSCCNC(=O)[C@H](Cc2cnc[nH]2)NC(=O)c2cccc(c2)CNC(=O)[C@H](CCCNC(=O)c2ccco2)N1 [D2-B5-H/16], the “percent residual thrombin activity” value rises from 99.7053% to 101.891%.

Going from O=C(Cc1c[nH]c2ccccc12)NCCC[C@@H]1NC(=O)CCSSCCNC(=O)[C@H](Cc2c[nH]cn2)NC(=O)c2cccc(c2)CNC1=O [D2-B5-H/12] to O=C(Cc1c[nH]c2ccccc12)NCCC[C@@H]1NC(=O)CCSSCCNC(=O)[C@H](Cc2ccc(O)cc2)NC(=O)c2cccc(c2)CNC1=O [D2-B5-Y/12], the “percent residual thrombin activity” value falls from 99.4462% to 99.266%.

Compared with O=C(COc1ccccc1)NCCC[C@@H]1NC(=O)CCSSCCNC(=O)[C@H](Cc2cnc[nH]2)NC(=O)c2cccc(c2)CNC1=O [D2-B5-H/13], O=C(COc1ccccc1)NCCC[C@@H]1NC(=O)CCSSCCNC(=O)c2ccc(cc2)CNC(=O)[C@H](Cc2c[nH]c3ccccc23)NC1=O [D2-W-B3/13] is higher in “percent residual thrombin activity” value: 105.187% for the first, 117.613% for the second.

Compared with Cc1nnsc1C(=O)NCCC[C@@H]1NC(=O)CCSSCCNC(=O)[C@H](Cc2c[nH]cn2)NC(=O)c2cccc(c2)CNC1=O [D2-B5-H/15], Cc1nnsc1C(=O)NCCC[C@@H]1NC(=O)CCSSCCNC(=O)[C@H](Cc2ccc(O)cc2)NC(=O)c2cccc(c2)CNC1=O [D2-B5-Y/15] is lower in “percent residual thrombin activity” value: 105.304% for the first, 91.9104% for the second.

Going from CC(C)CC(=O)NCCC[C@@H]1NC(=O)CCSSCCNC(=O)[C@H](Cc2ccc(O)cc2)NC(=O)c2cccc(c2)CNC1=O [D2-B5-Y/8] to NCCC[C@@H]1NC(=O)CCSSCCNC(=O)[C@H](Cc2ccc(O)cc2)NC(=O)c2cccc(c2)CNC1=O [D2-B5-Y/-], the “percent residual thrombin activity” value rises from 100.592% to 110.083%.

Going from COc1ccc(C(=O)NCCC[C@@H]2NC(=O)CCSSCCNC(=O)[C@H](Cc3ccc(O)cc3)NC(=O)c3cccc(c3)CNC2=O)cn1 [D2-B5-Y/10] to O=C1CCSSCCNC(=O)[C@H](Cc2ccc(O)cc2)NC(=O)c2cccc(c2)CNC(=O)[C@H](CCCNC(=O)c2ccc(Cl)s2)N1 [D2-B5-Y/14], the “percent residual thrombin activity” value falls from 96.9489% to 78.2447%.

Going from O=C1CCSSCCNC(=O)[C@H](Cc2ccc(O)cc2)NC(=O)c2cccc(c2)CNC(=O)[C@H](CCCNC(=O)c2ccco2)N1 [D2-B5-Y/16] to CC(C)[C@H]1NC(=O)c2cccc(c2)CNC(=O)[C@H](CCCNC(=O)c2ccco2)NC(=O)CCSSCCNC1=O [D2-B5-v/16], the “percent residual thrombin activity” value rises from 100.852% to 103.718%.

Compared with CC(C)[C@H]1NC(=O)c2cccc(c2)CNC(=O)[C@H](CCCNC(=O)c2c[nH]c(=O)[nH]c2=O)NC(=O)CCSSCCNC1=O [D2-B5-v/11], CC(C)[C@H]1NC(=O)c2cccc(c2)CNC(=O)[C@H](CCCNC(=O)c2ccc(Cl)s2)NC(=O)CCSSCCNC1=O [D2-B5-v/14] is lower in “percent residual thrombin activity” value: 108.83% for the first, 98.5757% for the second.

Compared with CC[C@H](C)[C@@H]1NC(=O)[C@H](CCCNC(=O)c2snnc2C)NC(=O)CCSSCCNC(=O)[C@@H]2CCCN2C1=O [D2-I-B1/15] ([Mpa][Orn](1,2,3Thiadiazole5CO(4-Me))IP-Cysteamide; disulfide 1-C), CC[C@H](C)[C@@H]1NC(=O)[C@H](CCCNC(=O)c2ccc(Cl)s2)NC(=O)CCSSCCNC(=O)CCNC1=O [D2-I-B2/14] is lower in “percent residual thrombin activity” value: 108.604% for the first, 94.0704% for the second.

Going from CC[C@H](C)[C@@H]1NC(=O)[C@H](CCCNC(=O)c2ccccc2)NC(=O)CCSSCCNC(=O)CCNC1=O [D2-I-B2/1] ([Mpa][Orn](Bz)I[βAla]-Cysteamide; disulfide 1-C) to C[C@H]1NC(=O)[C@H](CCCNC(=O)c2ccccc2)NC(=O)CCSSCCNC(=O)CCNC1=O [D2-a-B2/1] ([Mpa][Orn](Bz)[dA][βAla]-Cysteamide; disulfide 1-C), the “percent residual thrombin activity” value rises from 109.798% to 113.72%.

Going from CC[C@H](C)[C@@H]1NC(=O)[C@H](CCCNC(=O)c2cnccn2)NC(=O)CCSSCCNC(=O)CCNC1=O [D2-I-B2/2] to O=C1CCNC(=O)[C@H](CO)NC(=O)[C@H](CCCNC(=O)c2cnccn2)NC(=O)CCSSCCN1 [D2-S-B2/2], the “percent residual thrombin activity” value rises from 113.295% to 115.288%.

First: CC[C@H](C)[C@@H]1NC(=O)[C@H](CCCNC(=O)CC(C)C)NC(=O)CCSSCCNC(=O)CCNC1=O [D2-I-B2/8] ([Mpa][Orn](Isovaleryl)I[βAla]-Cysteamide; disulfide 1-C)
Second: CC[C@H](C)[C@@H]1NC(=O)[C@H](CCCNC(=O)COc2ccccc2)NC(=O)CCSSCCNC(=O)CCNC1=O [D2-I-B2/13]
The “percent residual thrombin activity” value of the first is lower: 110.049% for the first, 114.645% for the second.

Going from COc1ccc(C(=O)NCCC[C@@H]2NC(=O)CCSSCCNC(=O)CCNC(=O)[C@H](CO)NC2=O)cn1 [D2-S-B2/10] to COc1ccc(C(=O)NCCC[C@@H]2NC(=O)CCSSCCNC(=O)CCNC(=O)[C@@H](C)NC2=O)cn1 [D2-a-B2/10], the “percent residual thrombin activity” value rises from 107.459% to 113.133%.

Going from O=C1CCNC(=O)[C@H](CO)NC(=O)[C@H](CCCNC(=O)Cc2c[nH]c3ccccc23)NC(=O)CCSSCCN1 [D2-S-B2/12] to C[C@H]1NC(=O)[C@H](CCCNC(=O)Cc2c[nH]c3ccccc23)NC(=O)CCSSCCNC(=O)CCNC1=O [D2-a-B2/12], the “percent residual thrombin activity” value falls from 110.146% to 109.862%.

Compared with O=C1CCNC(=O)[C@H](CO)NC(=O)[C@H](CCCNC(=O)c2ccc(Cl)s2)NC(=O)CCSSCCN1 [D2-S-B2/14], C[C@H]1NC(=O)[C@H](CCCNC(=O)c2ccc(Cl)s2)NC(=O)CCSSCCNC(=O)CCNC1=O [D2-a-B2/14] is higher in “percent residual thrombin activity” value: 105.361% for the first, 108.542% for the second.

First: O=C1CCSSCCNC(=O)c2ccc(cc2)CNC(=O)[C@H](Cc2c[nH]c3ccccc23)NC(=O)[C@H](CCCNC(=O)c2ccccc2)N1 [D2-W-B3/1] ([Mpa][Orn](Bz)W[4Amb]-Cysteamide; disulfide 1-C)
Second: O=C(Cc1c[nH]c2ccccc12)NCCC[C@@H]1NC(=O)CCSSCCNC(=O)c2ccc(cc2)CNC(=O)[C@H](Cc2c[nH]c3ccccc23)NC1=O [D2-W-B3/12]
The “percent residual thrombin activity” value of the first is lower: 105.41% for the first, 112.189% for the second.

Compared with O=C1CCSSCCNC(=O)c2ccc(cc2)CNC(=O)[C@H](Cc2c[nH]c3ccccc23)NC(=O)[C@H](CCCNC(=O)c2c[nH]c(=O)cn2)N1 [D2-W-B3/9], O=C1CCSSCCNC(=O)c2ccc(cc2)CNC(=O)[C@H](Cc2c[nH]c3ccccc23)NC(=O)[C@H](CCCNC(=O)c2c[nH]c(=O)[nH]c2=O)N1 [D2-W-B3/11] is higher in “percent residual thrombin activity” value: 111.429% for the first, 121.031% for the second.

First: O=C1CCSSCCNC(=O)c2ccc(cc2)CNC(=O)[C@H](Cc2c[nH]c3ccccc23)NC(=O)[C@H](CCCNC(=O)c2ccc(Cl)s2)N1 [D2-W-B3/14]
Second: Cc1nnsc1C(=O)NCCC[C@@H]1NC(=O)CCSSCCNC(=O)c2ccc(cc2)CNC(=O)[C@H](Cc2c[nH]c3ccccc23)NC1=O [D2-W-B3/15]
The “percent residual thrombin activity” value of the first is lower: 109.796% for the first, 116.257% for the second.

Going from NCCC[C@@H]1NC(=O)CCSSCCNC(=O)c2ccc(cc2)CNC(=O)[C@H](Cc2c[nH]c3ccccc23)NC1=O [D2-W-B3/-] ([Mpa][Orn]W[4Amb]-Cysteamide; disulfide 1-C) to O=C1CCSSCCNC(=O)[C@@H]2CCCN2C(=O)[C@H](Cc2ccc(O)cc2)NC(=O)[C@H](CCCNC(=O)c2ccco2)N1 [D2-Y-B1/16] ([Mpa][Orn](2Furoyl)YP-Cysteamide; disulfide 1-C), the “percent residual thrombin activity” value falls from 110.008% to 105.138%.

First: O=C(COc1ccccc1)NCCCC[C@@H]1NC(=O)[C@H](Cc2ccccc2)NC(=O)CCSSCCNC(=O)[C@H]2CCCN(C2)C1=O [F-D1-B4/13]
Second: CC(C)CC(=O)NCCC[C@@H]1NC(=O)CCNC(=O)[C@H](Cc2cnc[nH]2)NC(=O)CCSSCCNC1=O [H-B2-D2/8]
The “percent residual thrombin activity” value of the first is higher: 109.797% for the first, 108.958% for the second.
